Source: patent US20080241904A1, “PROCESS FOR PRODUCING ISOMALTOSE AND USES THEREOF” (KABUSHIKI KAISHA HAYASHIBARA SEIBUTSU KAGAKU KENKYUJO, priority 2001, published 2008)

Columns and labels:
[1] = system: α-isomaltosylglucosaccharide-forming enzyme from Bacillus globisporus C9; assay: Action of α-isomaltosylglucosaccharide-forming enzyme on saccharides as substrates (TLC), enzyme of Strain C9; assay type: biochemical; design: key: −: it showed no change; +: it showed a slight reduction of the color of substrate spot and the formation of other reaction product; ++: it showed a high reduction of the color of substrate spot and the formation of other reaction product; +++: it showed a substantial disappearance of the color of substrate spot and the formation of other reaction product; settings: two units/g substrate, substrate 2% (w/v), 30° C., pH 6.0, 24 hours
Protocol: (§1) The action of α-isomaltosylglucosaccharide-forming enzyme on saccharides as substrates was tested. First, a solution of maltose, maltotriose, maltotetraose, maltopentaose, maltohexaose, maltoheptaose, isomaltose, isomaltotriose, panose, isopanose, α,α-trehalose (may be abbreviated as “trehalose” hereinafter), kojibiose, nigerose, neotrehalose, cellobiose, gentibiose, maltitol, maltotriitol, lactose, sucrose, erlose, selaginose, maltosyl glucoside, or isomaltosyl glucoside was prepared. To each of the above solutions was added two units/g substrate of the purified specimen of α-isomaltosylglucosaccharide-forming enzyme from Bacillus globisporus C9 in Experiment 2-1 or Bacillus globisporus C11 in Experiment 4-1, and each resulting solution was adjusted to give a substrate concentration of 2% (w/v) and incubated at 30° C. and pH 6.0 for 24 hours. The solutions before and after the enzymatic reactions were respectively subjected to thin-layer chromatography (abbreviated as “TLC” hereinafter). TLC was carried out in such a manner of separating saccharides by developing the solutions twice each using, as a developer, a mixture solution of n-butanol, pyridine, and water (=6:4:1), and, as a thin-layer plate, “[…] 60”, an aluminum plate (20×20 cm) for TLC commercialized by Merck & Co., Inc., Rahway, USA.; detecting the total saccharides in each mixture solution by spraying a mixture of sulfuric acid and methanol onto the aluminum plates to develop color of the total saccharides and detecting non-reducing saccharides in each mixture solution by the diphenylamine-aniline method.

[2] = system: α-isomaltosylglucosaccharide-forming enzyme from Bacillus globisporus C11; assay: Action of α-isomaltosylglucosaccharide-forming enzyme on saccharides as substrates (TLC), enzyme of Strain C11; assay type: biochemical; design: key: −: it showed no change; +: it showed a slight reduction of the color of substrate spot and the formation of other reaction product; ++: it showed a high reduction of the color of substrate spot and the formation of other reaction product; +++: it showed a substantial disappearance of the color of substrate spot and the formation of other reaction product; settings: two units/g substrate, substrate 2% (w/v), 30° C., pH 6.0, 24 hours
Protocol: as §1

[3] = system: α-isomaltosylglucosaccharide-forming enzyme from Bacillus globisporus C9 strain; assay: Specificity of saccharide transferring reaction acceptor, enzyme of Strain C9; assay type: biochemical; settings: 1.6% acceptor, 4% PINE-DEX #100 as donor, one unit/g donor, 30° C., pH 6.0, 24 hours; GLC or HPLC
Protocol: (§2) Using different saccharides, it was tested whether the saccharides were used as saccharide transferring reaction acceptors for the α-isomaltosylglucosaccharide-forming enzyme. A 1.6% solution, as a solution of saccharide transferring reaction acceptor, of D-glucose, D-xylose, L-xylose, D-galactose, D-fructose, D-mannose, D-arabinose, D-fucose, L-sorbose, L-rhamnose, methyl-α-glucopyranoside (methyl-α-glucose), methyl-β-glucopyranoside ([…]), N-acetyl-glucosamine, sorbitol, α,α-trehalose, isomaltose, isomaltotriose, cellobiose, gentibiose, maltitol, lactose, sucrose, α-cyclodextrin, β-cyclodextrin, or γ-cyclodextrin, was prepared. To each solution with a saccharide concentration was added “PINE-DEX #100”, a partial starch hydrolysate, as a saccharide donor, to give a concentration of 4%, and admixed with one unit/g saccharide donor, d.s.b., of either of purified specimens of α-isomaltosylglucosaccharide-forming enzyme from Bacillus globisporus C9 strain obtained by the method in Experiment 2-1, Bacillus globisporus C11 strain obtained by the method in Experiment 4-1. The resulting mixture solutions were incubated at 30° C. and pH 6.0 except that the enzyme from Arthrobacter globiformis A19 strain was incubated at pH 8.4 for 24 hours. The reaction mixtures of the post-enzymatic reactions were analyzed on gas chromatography (abbreviated as “GLC” hereinafter) for monosaccharides and disaccharides as acceptors, and on HPLC for trisaccharides as acceptors to confirm whether these saccharides could be used as their saccharide transferring reaction acceptors. In the case of performing GLC, the following apparatuses and conditions are used: GLC apparatus, “GC-16A” commercialized by Shimadzu Corporation, Tokyo, Japan; column, a stainless-steel column, 3 mm in diameter and 2 m in length, packed with 2% “SILICONE OV-17/CHROMOSOLV W”, commercialized by GL Sciences Inc., Tokyo, Japan; carrier gas, nitrogen gas at a flow rate of 40 ml/min under temperature conditions of increasing from 160° C. to 320° C. at an increasing temperature rate of 7.5° C./min; and detection, a hydrogen flame ionization detector.
(§3) In the case of HPLC analysis, the apparatuses and conditions used were: HPLC apparatus, “CCPD” commercialized by Tosoh Corporation, Tokyo, Japan; column, “ODS-AQ-303” commercialized by YMC Co., Ltd., Tokyo, Japan; eluent, water at a flow rate of 0.5 ml/min; and detection, a differential refractometer.

[4] = system: α-isomaltosylglucosaccharide-forming enzyme from Bacillus globisporus C11 strain; assay: Specificity of saccharide transferring reaction acceptor, enzyme of Strain C11; assay type: biochemical; settings: 1.6% acceptor, 4% PINE-DEX #100 as donor, one unit/g donor, 30° C., pH 6.0, 24 hours; GLC or HPLC
Protocol: as §2, §3

[5] = system: α-isomaltosyl-transferring enzyme; assay: Influence of metal ions on activity of α-isomaltosyl-transferring enzyme (Strain C9); assay type: biochemical, Bacillus globisporus C9; settings: in the presence of 1 mM of each metal ion, None = 100
Protocol: The α-isomaltosyl-transferring enzyme was assayed for enzymatic activity by dissolving panose in 100 mM acetate buffer (pH 6.0) to give a concentration of 2% (w/v) for a substrate solution, adding a 0.5 ml of an enzyme solution to 0.5 ml of the substrate solution, enzymatically reacting the mixture solution at 35° C. for 30 min, suspending the reaction mixture by boiling for 10 min, and quantifying glucose, among the cyclotetrasaccharide and glucose formed in the reaction mixture, by the glucose oxidase method. One unit activity of the α-isomaltosyl-transferring enzyme is defined as the enzyme amount that forms one micromole of glucose per minute under the above enzymatic reaction conditions.
The influence of metal ions on the activity of α-isomaltosyl-transferring enzyme was examined in the presence of 1 mM of each metal-ion according to the assay for the enzyme activity.

[6] = system: α-isomaltosylglucosaccharide-forming enzyme; assay: Influence of metal ions on enzyme activity, Experiment 4-2 (Strain C11); assay type: biochemical, Bacillus globisporus C11; settings: in the presence of 1 mM of each metal ion, None = 100

SMILES | Enzymatic action, Enzyme of Strain C9 [1] | Enzymatic action, Enzyme of Strain C11 [2] | Relative activity [5] [%] | Relative activity ([5]; listed as Fe^3+) [%] | Relative activity [6] [%] | Relative activity ([6]; listed as Fe^3+) [%] | Product of saccharide transferring reaction, Enzyme of Strain C9 [3] | Product of saccharide transferring reaction, Enzyme of Strain C11 [4]
OC[C@H]1O[C@@H](OC[C@H]2OC(O)[C@H](O)[C@@H](O)[C@@H]2O)[C@H](O)[C@@H](O)[C@@H]1O (stereo partly drawn) [Gentibiose, gentibiose] | − | − |  |  |  |  | ++ (a saccharide-transferred product was detected in an amount of at least ten percent through transferring reaction to acceptor) | ++ (a saccharide-transferred product was detected in an amount of at least ten percent through transferring reaction to acceptor)
OC[C@H]1O[C@H](OC[C@H]2O[C@H](OC[C@H]3OC(O)[C@H](O)[C@@H](O)[C@@H]3O)[C@H](O)[C@@H](O)[C@@H]2O)[C@H](O)[C@@H](O)[C@@H]1O (stereo partly drawn) [Isomaltotriose, isomaltotriose] | − | − |  |  |  |  | ++ (a saccharide-transferred product was detected in an amount of at least ten percent through transferring reaction to acceptor) | ++ (a saccharide-transferred product was detected in an amount of at least ten percent through transferring reaction to acceptor)
[Fe+2] [Fe^2+] |  |  | 96 | 105 | 100 | 102 |  | 
OC[C@H]1O[C@H](OC[C@H]2OC(O)[C@H](O)[C@@H](O)[C@@H]2O)[C@H](O)[C@@H](O)[C@@H]1O (stereo partly drawn) [Isomaltose, isomaltose] | − | − |  |  |  |  | ++ (a saccharide-transferred product was detected in an amount of at least ten percent through transferring reaction to acceptor) | ++ (a saccharide-transferred product was detected in an amount of at least ten percent through transferring reaction to acceptor)

Continued, in another order:

Enzymatic action, Enzyme of Strain C9 [1] | Enzymatic action, Enzyme of Strain C11 [2] | Relative activity [5] [%] | Relative activity ([5]; listed as Fe^3+) [%] | Relative activity [6] [%] | Relative activity ([6]; listed as Fe^3+) [%] | SMILES | Product of saccharide transferring reaction, Enzyme of Strain C9 [3] | Product of saccharide transferring reaction, Enzyme of Strain C11 [4]
− | − |  |  |  |  | OC[C@@H](O)[C@@H](O[C@H]1O[C@H](CO)[C@@H](O)[C@H](O)[C@H]1O)[C@H](O)[C@@H](O)CO [Maltitol, maltitol] | ++ (a saccharide-transferred product was detected in an amount of at least ten percent through transferring reaction to acceptor) | ++ (a saccharide-transferred product was detected in an amount of at least ten percent through transferring reaction to acceptor)
− | − |  |  |  |  | O=C[C@H](O)[C@@H](O)[C@H](O[C@@H]1O[C@H](CO)[C@@H](O)[C@H](O)[C@H]1O)[C@H](O)CO [Cellobiose, cellobiose] | ++ (a saccharide-transferred product was detected in an amount of at least ten percent through transferring reaction to acceptor) | ++ (a saccharide-transferred product was detected in an amount of at least ten percent through transferring reaction to acceptor)
− | − |  |  |  |  | OC[C@H]1O[C@@](CO)(O[C@H]2O[C@H](CO)[C@@H](O)[C@H](O)[C@H]2O)[C@@H](O)[C@@H]1O [Sucrose, sucrose] | ++ (a saccharide-transferred product was detected in an amount of at least ten percent through transferring reaction to acceptor) | ++ (a saccharide-transferred product was detected in an amount of at least ten percent through transferring reaction to acceptor)
− | − |  |  |  |  | OC[C@H]1O[C@@H](O[C@H]2[C@H](O)[C@@H](O)C(O)O[C@@H]2CO)[C@H](O)[C@@H](O)[C@H]1O (stereo partly drawn) [Lactose, lactose] | ++ (a saccharide-transferred product was detected in an amount of at least ten percent through transferring reaction to acceptor) | ++ (a saccharide-transferred product was detected in an amount of at least ten percent through transferring reaction to acceptor)
− | − |  |  |  |  | OC[C@H]1O[C@H](O[C@H]2O[C@H](CO)[C@@H](O)[C@H](O)[C@H]2O)[C@H](O)[C@@H](O)[C@@H]1O [Trehalose, α,α-trehalose] | ++ (a saccharide-transferred product was detected in an amount of at least ten percent through transferring reaction to acceptor) | ++ (a saccharide-transferred product was detected in an amount of at least ten percent through transferring reaction to acceptor)
